# According to patent US8299038B2, “Methods and compositions for treating hepatitis C virus” (Idenix Pharmaceuticals, Inc., priority 2000, dated 2012):
# Several values for one entry are separate records, joined by “and”; a condition that tells them apart may be missing. Equal entries are not always repeated.
# Legend:
# HCV = conditions: monotherapy, cited from earlier work
# [1] = test system: CFU-GM (human bone marrow cells); assay: Human bone marrow toxicity CFU-GM clonogenic assay; conditions: read-out: IC50 CFU-GM, colony formation after 14 to 18 days
# Experimental: (§1) The culture assays for CFU-GM and BFU-E were performed using a bilayer soft agar or methylcellulose method. Drugs were diluted in tissue culture medium and filtered. After 14 to 18 days at 37° C. in a humidified atmosphere of 5% CO2 in air, colonies of greater than 50 cells were counted using an inverted microscope.
# [2] = test system: BFU-E (human bone marrow cells); assay: Human bone marrow toxicity BFU-E clonogenic assay; conditions: read-out: IC50 BFU-E, colony formation after 14 to 18 days
# Experimental: as §1
# [3] = Bioavailability assay in Cynomolgus monkeys; type: in vivo, cynomolgus monkey; conditions: for Norm AUC: individual monkeys, AUC normalised to dose in mg; for Mean Norm AUC: mean of 3 monkeys
# Experimental: Within 1 week prior to the study initiation, the cynomolgus monkey was surgically implanted with a chronic venous catheter and subcutaneous venous access port (VAP) to facilitate blood collection and underwent a physical examination including hematology and serum chemistry evaluations and the body weight was recorded. […] Each dosing syringe was weighed before dosing to gravimetrically determine the quantity of formulation administered. Urine samples were collected via pan catch at the designated intervals (approximately 18-0 hours pre-dose, 0-4, 4-8 and 8-12 hours post-dosage) and processed.
smiles,measurement,setting,value
"NC(=O)c1ncn([C@@H]2O[C@H](CO)[C@@H](O)[C@H]2O)n1 [ribavirin, 1-β-D-ribofuranosyl-1-1,2,4-triazole-3-carboxamide]",effect on serum levels of HCV-RNA,HCV; HCV patients,does not lower serum levels of HCV-RNA
same,patients in whom serum amino transferase levels are reduced to normal,HCV,40%
"C[C@@]1(O)[C@H](O)[C@@H](CO)O[C@H]1n1cnc2c(N)ncnc21 [β-D-2′-CH3-riboA, 2′-C-methylriboadenine]",IC50,[1],> 100 µM
same,IC50,[2],> 100 µM
C[C@@]1(O)[C@H](O)[C@@H](CO)O[C@H]1n1cnc2c(=O)[nH]c(N)nc21 [β-D-2′-CH3-riboG],IC50,[1],> 10 µM
same,IC50,[2],> 100 µM
same,CL,[3]; IV 10 mg/kg,21.3 ± 8 mL/min/kg
same,Cmax,[3]; IV 10 mg/kg,6945.6 ± 1886.0 ng/mL
same,T1/2,[3]; IV 10 mg/kg,7.9 ± 5.4 h
same,Tmax,[3]; IV 10 mg/kg,0.25 ± 0.00 h
same,Vss,[3]; IV 10 mg/kg,2.09 ± 0.54 L/kg
same,AUC,"[3]; IV 10 mg/kg, mean ± spread",8758.0 ± 4212.9 ng·h/mL
same,AUC,"[3]; IV bolus 10 mg/kg, individual monkeys 1-3, 10 mg/kg",6079 ng·h/mL and 13614 ng·h/mL and 6581 ng·h/mL
same,Norm AUC,[3]; IV,293.4 ng·h/mL/mg and 293.2 ng·h/mL/mg and 268.3 ng·h/mL/mg
same,Mean Norm AUC,[3]; IV,284.9 ng·h/mL/mg
same,Cmax,[3]; PO 10 mg/kg,217.7 ± 132.1 ng/mL
same,T1/2,[3]; PO 10 mg/kg,10.3 ± 4.1 h
same,Tmax,[3]; PO 10 mg/kg,2.00 ± 1.00 h
same,AUC,"[3]; PO 10 mg/kg, mean ± spread",1166.0 ± 589.6 ng·h/mL
same,AUC,"[3]; PO gavage 10 mg/kg, individual monkeys 1-3, 10 mg/kg",758 ng·h/mL and 898 ng·h/mL and 1842 ng·h/mL
same,Norm AUC,[3]; PO,26.1 ng·h/mL/mg and 29.0 ng·h/mL/mg and 61.3 ng·h/mL/mg
same,Mean Norm AUC,[3]; PO,38.8 ng·h/mL/mg
same,F (oral bioavailability),"[3]; Table 2, PO vs IV mean norm AUC",13.6%
same,F,"[3]; Table 3, 10 mg/kg PO vs IV",13.8%
